Results published in patent US20240158446A1, “CYCLIC COMPOUND HAVING SELECTIVE INHIBITORY ACTION ON KRAS OVER HRAS AND NRAS” (CHUGAI SEIYAKU KABUSHIKI KAISHA, priority 2021, published 2024).
Where two headings read alike, the source gives them in different places. *1 amine or outer side, *2 acyl side, *3 side chain or, on linkers, in order; H or OH if unused. Where a SMILES comes first, the peptide text is derived from it. Bridges are numbered along the chain shown (N, C = ends). [ ]: non-standard residue; d: D form. The star is where a group is joined. hPhe(3-Cl-4-CF3) = N[C@@H](CCc1ccc(C(F)(F)F)c(Cl)c1)C(=O)O; NPrPhe(4-CF3) = CCCN[C@@H](Cc1ccc(C(F)(F)F)cc1)C(=O)O; X35 = COCCN([C@@H](Cc1ccc(C)cc1)C(=O)[*:2])[*:1]; NMeGly(cPent) = CN[C@H](C(=O)O)C1CCCC1; NMeD = CN[C@@H](CC(=O)O)C(=O)O; NMeL = CN[C@@H](CC(C)C)C(=O)O; Morpholide = C1CN(*)CCO1; NMeA = CN[C@@H](C)C(=O)O; Ac5c = NC1(C(=O)O)CCCC1; Aze = O=C(O)[C@@H]1CCN1; NPrGly = CCCNCC(=O)O; NEtG = CCNCC(=O)O; Sar = CNCC(=O)O

Tests used:
[1] = molecular target: GDP-bound HRAS wild-type protein (Homo sapiens, UniProt P01112); assay: Binding to HRAS by surface plasmon resonance (SPR), Single Cycle Kinetics
[2] = molecular target: GDP-bound NRAS wild-type protein (Homo sapiens, UniProt P01111); assay: Binding to NRAS by surface plasmon resonance (SPR), Single Cycle Kinetics
[3] = molecular target: GDP-bound KRAS wild-type protein (Homo sapiens, UniProt P01116); assay: Binding to KRAS by surface plasmon resonance (SPR), Single Cycle Kinetics; conditions: GDP-bound KRAS wild-type protein, read-out: KRAS KD
[4] = SPR, GDP-bound HRAS wild-type protein vs GDP-bound KRAS wild-type protein
[5] = SPR, GDP-bound NRAS wild-type protein vs GDP-bound KRAS wild-type protein
[6] = SPR Single Cycle Kinetics, 1:1 binding model

Sequence of GDP-bound KRAS wild-type protein (P01116 whole entry): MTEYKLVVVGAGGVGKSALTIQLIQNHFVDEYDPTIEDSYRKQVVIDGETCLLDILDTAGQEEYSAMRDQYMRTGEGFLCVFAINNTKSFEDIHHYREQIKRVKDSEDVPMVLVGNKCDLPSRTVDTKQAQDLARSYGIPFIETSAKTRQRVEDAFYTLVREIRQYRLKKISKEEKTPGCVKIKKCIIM
Sequence of GDP-bound HRAS wild-type protein (P01112 whole entry): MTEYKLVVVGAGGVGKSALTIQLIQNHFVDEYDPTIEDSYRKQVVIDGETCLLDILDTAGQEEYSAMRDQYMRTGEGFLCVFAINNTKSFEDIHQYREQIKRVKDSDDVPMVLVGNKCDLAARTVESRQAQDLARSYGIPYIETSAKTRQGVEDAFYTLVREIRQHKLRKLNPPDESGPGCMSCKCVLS
Sequence of GDP-bound NRAS wild-type protein (P01111 whole entry): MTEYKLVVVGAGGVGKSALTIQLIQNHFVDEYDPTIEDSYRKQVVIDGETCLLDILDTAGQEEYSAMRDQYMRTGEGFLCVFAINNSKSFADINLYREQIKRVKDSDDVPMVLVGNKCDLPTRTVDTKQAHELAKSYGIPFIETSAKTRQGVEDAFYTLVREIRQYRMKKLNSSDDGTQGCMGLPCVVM

CCCN1C(=O)[C@@H]2CCN2C(=O)CN(CC)C(=O)[C@H]([C@@H](C)CC)NC(=O)[C@H](CC(C)C)N(C)C(=O)C[C@@H](C(=O)N2CCOCC2)N(C)C(=O)[C@H](C2CCCC2)N(C)C(=O)C2(CCCC2)NC(=O)[C@@H]2CCCN2C(=O)[C@H](CCc2ccc(C(F)(F)F)c(Cl)c2)NC(=O)CN(C)C(=O)[C@@H]1Cc1ccc(C(F)(F)F)cc1 [PP0259] ([NMeL]I[NEtG][Aze][NPrPhe(4-CF3)][Sar][hPhe(3-Cl-4-CF3)]P[Ac5c][NMeGly(cPent)][NMeD]-Morpholide; lactam N-11)
HRAS/KRAS (ratio of KD value for HRAS to KD value for KRAS) [1, 4]: B (a compound having 3 or more and less than 10 is denoted as B) | NRAS/KRAS (ratio of KD value for NRAS to KD value for KRAS) [2, 5]: C (A compound having a KD ratio of 0.1 or more and less than 3 is denoted as C) | Kd [3, 6]: 0.42 nM

CC[C@H](C)[C@@H]1NC(=O)[C@H](CC(C)C)N(C)C(=O)C[C@@H](C(=O)N2CCOCC2)N(C)C(=O)[C@H](C2CCCC2)N(C)C(=O)C2(CCCC2)NC(=O)[C@@H]2CCCN2C(=O)[C@H](CCc2ccc(C(F)(F)F)c(Cl)c2)NC(=O)CN(C)C(=O)[C@H](Cc2ccc(C)cc2)N(CCOC)C(=O)[C@@H]2CCN2C(=O)[C@H](C)N(C)C1=O [PP0092] ([NMeL]I[NMeA][Aze][X35][Sar][hPhe(3-Cl-4-CF3)]P[Ac5c][NMeGly(cPent)][NMeD]-Morpholide; lactam N-11)
HRAS/KRAS (ratio of KD value for HRAS to KD value for KRAS) [1, 4]: C (A compound having a KD ratio of 0.1 or more and less than 3 is denoted as C) | NRAS/KRAS (ratio of KD value for NRAS to KD value for KRAS) [2, 5]: C (A compound having a KD ratio of 0.1 or more and less than 3 is denoted as C) | Kd [3, 6]: 0.15 nM

CCO[C@@H]1C[C@H]2C(=O)NC3(CCC3)C(=O)N(C)[C@@H](C3CCCC3)C(=O)N(C)[C@H](C(=O)N(C)C)CC(=O)N(C)[C@@H](CC)C(=O)N[C@@H]([C@@H](C)CC)C(=O)N(C)CC(=O)N(C)[C@H]3CCCCN(C3=O)[C@@H](Cc3ccc(C(F)(F)F)cc3)C(=O)N(C)CC(=O)N[C@@H](CCc3cc(Cl)c(C(F)(F)F)c(Cl)c3)C(=O)N2C1 [PP0985]
HRAS/KRAS (ratio of KD value for HRAS to KD value for KRAS) [1, 4]: C (A compound having a KD ratio of 0.1 or more and less than 3 is denoted as C) | NRAS/KRAS (ratio of KD value for NRAS to KD value for KRAS) [2, 5]: C (A compound having a KD ratio of 0.1 or more and less than 3 is denoted as C) | Kd ([3]; SPR, Single Cycle Kinetics): 0.022 nM

CCCN1CC(=O)NC2(CCCC2)C(=O)N(C)[C@@H](C2CCCC2)C(=O)N(C)[C@H](C(=O)N2CCOCC2)CC(=O)N(C)[C@@H](CC(C)C)C(=O)N[C@@H]([C@@H](C)CC)C(=O)N(C)[C@@H](C)C(=O)N2CC[C@H]2C(=O)N(CCC)[C@@H](Cc2ccc(C(F)(F)F)cc2)C(=O)N(C)CC(=O)N[C@@H](CCc2ccc(C(F)(F)F)c(Cl)c2)C1=O [PP0288] ([NMeL]I[NMeA][Aze][NPrPhe(4-CF3)][Sar][hPhe(3-Cl-4-CF3)][NPrGly][Ac5c][NMeGly(cPent)][NMeD]-Morpholide; lactam N-11)
HRAS/KRAS (ratio of KD value for HRAS to KD value for KRAS) [1, 4]: B (a compound having 3 or more and less than 10 is denoted as B) | NRAS/KRAS (ratio of KD value for NRAS to KD value for KRAS) [2, 5]: C (A compound having a KD ratio of 0.1 or more and less than 3 is denoted as C) | Kd [3, 6]: 0.42 nM

CCCC[C@H]1C(=O)N[C@@H]([C@@H](C)CC)C(=O)N(C)CC(=O)N(C)[C@H]2C/C=C\CCN(C2=O)[C@@H](Cc2ccc(C)cc2)C(=O)N(C)CC(=O)N[C@@H](CCc2cc(F)c(C(F)(F)F)c(F)c2)C(=O)N2C[C@H](OCC)C[C@H]2C(=O)NC2(CC(C)(C)C2)C(=O)N(C)[C@@H](C2CCCC2)C(=O)N(C)[C@H](C(=O)N(C)CC)CC(=O)N1C [PP2808]
HRAS/KRAS (ratio of KD value with respect to GDP-bound HRAS wild-type protein to KD value with respect to KRAS) ([1]; SPR KD ratio HRAS/KRAS, class symbols): B (a compound having 3 or more and less than 10 is denoted as B) | NRAS/KRAS (ratio of KD value with respect to GDP-bound NRAS wild-type protein to KD value with respect to KRAS) ([2]; SPR KD ratio NRAS/KRAS, class symbols): B (a compound having 3 or more and less than 10 is denoted as B) | Kd [3, 6]: 0.43 nM

CC[C@H](C)[C@@H]1NC(=O)[C@H](CC(C)C)N(C)C(=O)C[C@@H](C(=O)N(C)C)N(C)C(=O)[C@H](C2CCCC2)N(C)C(=O)C2(CCCC2)NC(=O)[C@@H]2CC(F)(F)CN2C(=O)[C@H](CCc2cc(F)c(C(F)(F)F)c(F)c2)NC(=O)CN(C)C(=O)[C@H](Cc2ccc(C(F)(F)F)cc2)N2CCCCC[C@@H](C2=O)N(C)C(=O)CN(C)C1=O [PP0465]
HRAS/KRAS (ratio of KD value with respect to HRAS to KD value with respect to KRAS) [1, 4]: B (a compound having 3 or more and less than 10 is denoted as B) | NRAS/KRAS (ratio of KD value with respect to NRAS to KD value with respect to KRAS) [2, 5]: B (a compound having 3 or more and less than 10 is denoted as B) | Kd [3, 6]: 0.51 nM
